Reference: patent publication US8399681B2, “Substituted aminothiazolone indazoles as estrogen related receptor-alpha modulators” (Janssen Pharmaceutica NV, priority 2009, dated 2013)

target: T1, ERR1 (also known as ERR-α or ERR-1) (Homo sapiens, UniProt P11474); assay: TR-FRET assay (disruption of co-activator peptide binding); format: biochemical; conditions: 6His-tagged ERR1 LBD, GST-hSRC2 co-activator polypeptide; average of 3 independent experiments
T1 sequence (P11474 193-421 limits assumed): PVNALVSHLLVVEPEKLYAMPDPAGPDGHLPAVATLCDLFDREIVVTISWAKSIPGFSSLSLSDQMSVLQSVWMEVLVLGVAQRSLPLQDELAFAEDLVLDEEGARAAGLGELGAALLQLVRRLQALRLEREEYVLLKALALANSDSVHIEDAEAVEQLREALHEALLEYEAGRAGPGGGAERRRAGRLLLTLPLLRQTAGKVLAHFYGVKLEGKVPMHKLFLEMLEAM
In short: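 Compound-induced loss of co-activator recruitment, read by time-resolved FRET (excitation 340 nm; 615 and 665 nm emission) after 4-18 h at 25 °C. Reagents: 6 nM ERR1LBD, 6 nM GST-SRC-2, 30 nM Eu cryptate, 7.5 nM XL665, pH 8 Tris buffer. Values: hyperbolic fits averaged over 3 independent runs.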

Row | Compound | EC50 [µM]
1 | COCCN1CCN(C2=NC(=O)/C(=C/c3ccc4c(cnn4Cc4ccc(Cl)cc4C(F)(F)F)c3)S2)[C@H](C)C1 [Example 199, 5-({1-[4-Chloro-2-(trifluoromethyl)benzyl]-1H-indazol-5-yl}methylidene)-2-[4-(2-methoxyethyl)-2-(R)-methylpiperazin-1-yl]-1,3-thiazol-4(5H)-one] | 0.011
2 | O=C1N=C(N2CCCN(CCO)CC2)S/C1=C\c1ccc2c(cnn2Cc2ccc(Cl)cc2C(F)(F)F)c1 [Example 76, 5-[1-(4-Chloro-2-trifluoromethyl-benzyl)-1H-indazol-5-ylmethylene]-2-[4-(2-hydroxy-ethyl)-[1,4]diazepan-1-yl]-thiazol-4-one] | 0.0183
3 | CN1C[C@@H]2C[C@H]1CN2C1=NC(=O)/C(=C/c2ccc3c(cnn3Cc3ccc(C(F)(F)F)cc3C(F)(F)F)c2)S1 [Example 70, 5-[1-(2,4-Bis-trifluoromethyl-benzyl)-1H-indazol-5-ylmethylene]-2-(5-methyl-2S,5S-diaza-bicyclo[2.2.1]hept-2-yl)-thiazol-4-one] | 0.011
4 | CC[C@H]1CN(C2=NC(=O)/C(=C/c3ccc4c(cnn4Cc4ccc(Cl)cc4C(F)(F)F)c3)S2)CCN1 (stereo in doubt) [Example 123, 5-[1-(4-Chloro-2-trifluoromethyl-benzyl)-1H-indazol-5-ylmethylene]-2-(3-ethyl-piperazin-1-yl)-thiazol-4-one] | 0.005
5 | COc1ccc(Cn2ncc3cc(/C=C4\SC(N5CCC[C@H](N)C5)=NC4=O)ccc32)c(C(F)(F)F)c1 [Example 51, 2-(3-(S)-Amino-piperidin-1-yl)-5-[1-(4-methoxy-2-trifluoromethyl-benzyl)-1H-indazol-5-ylmethylene]-thiazol-4-one] | 0.009
6 | O=C1N=C(N2CCC(n3cnnn3)CC2)S/C1=C\c1ccc2c(cnn2Cc2ccc(Cl)cc2C(F)(F)F)c1 [Example 150, 5-[1-(4-Chloro-2-trifluoromethyl-benzyl)-1H-indazol-5-ylmethylene]-2-(4-tetrazol-1-yl-piperidin-1-yl)-thiazol-4-one] | 0.048
7 | O=C1N=C(N2CCC(C(=O)NS(=O)(=O)N3CCCC3)CC2)S/C1=C\c1ccc2c(cnn2Cc2ccc(C(F)(F)F)cc2C(F)(F)F)c1 [Example 173, Pyrrolidine-1-sulfonic acid (1-{5-[1-(2,4-bis-trifluoromethyl-benzyl)-1H-indazol-5-ylmethylene]-4-oxo-4,5-dihydro-thiazol-2-yl}-piperidine-4-carbonyl)-amide] | 0.071
8 | O=C1N=C(N2CCO[C@H](CO)C2)S/C1=C\c1ccc2c(cnn2Cc2ccc(Cl)cc2C(F)(F)F)c1 [Example 212, 5-({1-[4-Chloro-2-(trifluoromethyl)benzyl]-1H-indazol-5-yl}methylidene)-2-[2-(S)-(hydroxymethyl)morpholin-4-yl]-1,3-thiazol-4(5H)-one] | 0.02
9 | O=C1N=C(N2CCCO2)S/C1=C\c1ccc2c(cnn2Cc2ccc(Cl)cc2C(F)(F)F)c1 [Example 126, 5-[1-(4-Chloro-2-trifluoromethyl-benzyl)-1H-indazol-5-ylmethylene]-2-isoxazolidin-2-yl-thiazol-4-one] | 0.024
10 | CN1CCN(C2=NC(=O)/C(=C/c3ccc4c(cnn4Cc4ccc(C(F)(F)F)cc4Br)c3)S2)CC1 [Example 28, 5-[1-(2-Bromo-4-trifluoromethyl-benzyl)-1H-indazol-5-ylmethylene]-2-(4-methyl-piperazin-1-yl)-thiazol-4-one] | 0.059
11 | NC1CCN(C2=NC(=O)/C(=C/c3ccc4c(cnn4Cc4ccc(Cl)cc4C(F)(F)F)c3)S2)CC1 [Example 57, 2-(4-Amino-piperidin-1-yl)-5-[1-(4-chloro-2-trifluoromethyl-benzyl)-1H-indazol-5-ylmethylene]-thiazol-4-one] | 0.0121
12 | CC(=O)c1cc(Cl)ccc1Cn1ncc2cc(/C=C3\SC(N4CCN(C)CC4)=NC3=O)ccc21 [Example 97, 5-[1-(2-Acetyl-4-chloro-benzyl)-1H-indazol-5-ylmethylene]-2-(4-methyl-piperazin-1-yl)-thiazol-4-one] | 0.029
13 | CCOCCN1CCN(C2=NC(=O)/C(=C/c3ccc4c(cnn4Cc4ccc(Cl)cc4C(F)(F)F)c3)S2)CC1 [Example 81, 5-[1-(4-Chloro-2-trifluoromethyl-benzyl)-1H-indazol-5-ylmethylene]-2-[4-(2-ethoxy-ethyl)-piperazin-1-yl]-thiazol-4-one] | 0.0688
14 | O=C1N=C(N2CCC[C@H]2C(=O)O)S/C1=C\c1ccc2c(cnn2Cc2ccc(Cl)cc2C(F)(F)F)c1 [Example 44, 1-{5-[1-(4-Chloro-2-trifluoromethyl-benzyl)-1H-indazol-5-ylmethylene]-4-oxo-4,5-dihydro-thiazol-2-yl}-pyrrolidine-2-(S)-carboxylic acid] | 0.0032
15 | CN1CCN(C2=NC(=O)/C(=C/c3ccc4c(cnn4Cc4ccc(S(C)(=O)=O)cc4Cl)c3)S2)CC1 [Compound 17, 5-[1-(2-Chloro-4-methanesulfonyl-benzyl)-1H-indazol-5-ylmethylene]-2-(4-methyl-piperazin-1-yl)-thiazol-4-one] | > 4
16 | O=C1N=C(N2CCCN(CC(F)(F)F)CC2)S/C1=C\c1ccc2c(cnn2Cc2ccc(Cl)cc2C(F)(F)F)c1 [Example 135, 5-[1-(4-Chloro-2-trifluoromethyl-benzyl)-1H-indazol-5-ylmethylene]-2-[4-(2,2,2-trifluoro-ethyl)-[1,4]diazepan-1-yl]-thiazol-4-one] | 0.052
17 | C[C@@H]1CNCCN1C1=NC(=O)/C(=C/c2ccc3c(cnn3Cc3ccc(Cl)cc3C(F)(F)F)c2)S1 [Example 83, 5-[1-(4-Chloro-2-trifluoromethyl-benzyl)-1H-indazol-5-ylmethylene]-2-(2-(R)-methyl-piperazin-1-yl)-thiazol-4-one] | 0.015
18 | O=C1N=C(N2CCN(C3CC3)CC2)S/C1=C\c1ccc2c(cnn2Cc2ccc(Cl)cc2C(F)(F)F)c1 [Example 121, 5-[1-(4-Chloro-2-trifluoromethyl-benzyl)-1H-indazol-5-ylmethylene]-2-(4-cyclopropyl-piperazin-1-yl)-thiazol-4-one] | 0.0253
19 | O=C1N=C(N2CCO[C@H](CO)C2)S/C1=C\c1ccc2c(c1)c(Cl)nn2Cc1ccc(Cl)cc1C(F)(F)F [Example 185, 5-[3-Chloro-1-(4-chloro-2-trifluoromethyl-benzyl)-1H-indazol-5-ylmethylene]-2-(2-(S)-hydroxymethyl-morpholin-4-yl)-thiazol-4-one] | 0.003

Continued, values first:

Row | EC50 [µM] | Compound
20 | 0.009 | CONC(=O)C1CN(C2=NC(=O)/C(=C/c3ccc4c(cnn4Cc4ccc(Cl)cc4C(F)(F)F)c3)S2)CCN1 (stereo not shown) [Example 271, 4-[5-({1-[4-Chloro-2-(trifluoromethyl)benzyl]-1H-indazol-5-yl}methylidene)-4-oxo-4,5-dihydro-1,3-thiazol-2-yl]-N-methoxypiperazine-2-carboxamide]
21 | 0.795 | CN1CCN(C2=NC(=O)/C(=C/c3ccc4c(cnn4Cc4ccc(C(C)(C)O)cc4Cl)c3)S2)CC1 [Example 232, 5-({1-[2-Chloro-4-(1-hydroxy-1-methylethyl)benzyl]-1H-indazol-5-yl}methylidene)-2-(4-methylpiperazin-1-yl)-1,3-thiazol-4(5H)-one]
22 | 0.015 | O=C1N=C(N2CCC(O)(C(=O)O)CC2)S/C1=C\c1ccc2c(cnn2Cc2ccc(C(F)(F)F)cc2C(F)(F)F)c1 [Example 269, 1-[5-({1-[2,4-Bis(trifluoromethyl)benzyl]-1H-indazol-5-yl}methylidene)-4-oxo-4,5-dihydro-1,3-thiazol-2-yl]-4-hydroxypiperidine-4-carboxylic acid]
23 | 0.024 | O=C1N=C(N2CCC[C@H](NCC(F)F)C2)S/C1=C\c1ccc2c(cnn2Cc2ccc(C(F)(F)F)cc2C(F)(F)F)c1 [Example 266, 5-({1-[2,4-Bis(trifluoromethyl)benzyl]-1H-indazol-5-yl}methylidene)-2-{(3S)-3-[(2,2-difluoroethyl)amino]piperidin-1-yl}-1,3-thiazol-4(5H)-one]
24 | 0.235 | CC(C)(O)c1ccc(Cn2ncc3cc(/C=C4\SC(N5CCC(C(=O)O)CC5)=NC4=O)ccc32)c(C(F)(F)F)c1 [Example 245]
25 | 0.038 | CC(N[C@H]1CCN(C2=NC(=O)/C(=C/c3ccc4c(cnn4Cc4ccc(Cl)cc4C(F)(F)F)c3)S2)C1)C(N)=O (stereo partly drawn) [Example 265, N-2-{(3S)-1-[5-({1-[4-Chloro-2-(trifluoromethyl)benzyl]-1H-indazol-5-yl}methylidene)-4-oxo-4,5-dihydro-1,3-thiazol-2-yl]pyrrolidin-3-yl}alaninamide]
26 | 0.005 | COC[C@@H]1CN(C2=NC(=O)/C(=C/c3ccc4c(cnn4Cc4ccc(Cl)cc4C(F)(F)F)c3)S2)CCO1 [Example 235, 5-({1-[4-Chloro-2-(trifluoromethyl)benzyl]-1H-indazol-5-yl}methylidene)-2-[2-(S)-(methoxymethyl)morpholin-4-yl]-1,3-thiazol-4(5H)-one]
27 | 0.008 | CNC1CN(C2=NC(=O)/C(=C/c3ccc4c(cnn4Cc4ccc(Cl)cc4C(F)(F)F)c3)S2)C1 [Example 270, 5-({1-[4-Chloro-2-(trifluoromethyl)benzyl]-1H-indazol-5-yl}methylidene)-2-[3-(methylamino)azetidin-1-yl]-1,3-thiazol-4(5H)-one]
28 | 0.015 | COC(=O)N1CCN(C2=NC(=O)/C(=C/c3ccc4c(cnn4Cc4ccc(C(F)(F)F)cc4C(F)(F)F)c3)S2)C[C@@H]1CO [Example 216, Methyl 4-[5-({1-[2,4-bis(trifluoromethyl)benzyl]-1H-indazol-5-yl}methylidene)-4-oxo-4,5-dihydro-1,3-thiazol-2-yl]-2-(R)-(hydroxymethyl)piperazine-1-carboxylate]
